pIC50, pKi: −log10 of the molar value. Counter-ions that a name gives are not always drawn.
Experiments:
resistant form of EPSPS = experiment: EPSPS assay of plant extracts with or without glyphosate, resistant enzyme; assay type: biochemical, rice; conditions: 0.1 mM glyphosate, 0.1 mM 14C-PEP, 0.75 mM shikimate-3-Pi
Description: (§1) Assays are carried out generally according to the radiochemical method of Padgette et al 1987 (Archives of Biochemistry and Biophysics, 258(2) 564-573) with K+ions as the major species of cationic counterion. Assays in a total volume of 50 μl, in 50 mM Hepes(KOH) pH 7.0 at 25° C., contain purified enzyme or plant extract (see below) diluted appropriately in Hepes pH 7.0 containing 10% glycerol, and 5 mM DTT, ^14C PEP either as variable substrate(for kinetic determinations) or fixed at 100 or 250 μM and shikimate 3 Phosphate (K+salt) at 2 or 0.75 mM as indicated. Optionally, for assays of crude plant extracts, assays also contain 5 mM KF and/or 0.1 mM ammonium molybdate. Assays are started with the addition of ^14C phosphoenolpyruvate (cyclohexylammonium+salt) and stopped after 2-10 minutes (2 minutes is preferable) with the addition of 50μl of a solution of 1 part 1M acetic acid and 9 parts ethanol. […] Apparent Km and Vmax values are determined by least squares fit to a hyperbola with simple weighting using the Grafit 3.09b from Erithacus Software Ltd. Km values are generally ascertained using 8-9 concentrations of variable substrate ranging from Km/2-10 Km and triplicate points. […]

[1] = system: sensitive w/t form of EPSPS (endogenous); experiment: EPSPS assay of plant extracts with or without glyphosate, sensitive enzyme; assay type: biochemical, corn; conditions: 0.1 mM glyphosate, 0.1 mM 14C-PEP, 0.75 mM shikimate-3-Pi
Description: as §1

[2] = biological target: T1, mutant form of rice EPSPS (Oryza sativa, UniProt A0A0N9WU17, P177S/T173I); experiment: EPSPS enzyme assay (radiochemical) of purified mutant rice EPSPS; assay type: biochemical
T1 sequence (A0A0N9WU17 72-515 T173I/P177S): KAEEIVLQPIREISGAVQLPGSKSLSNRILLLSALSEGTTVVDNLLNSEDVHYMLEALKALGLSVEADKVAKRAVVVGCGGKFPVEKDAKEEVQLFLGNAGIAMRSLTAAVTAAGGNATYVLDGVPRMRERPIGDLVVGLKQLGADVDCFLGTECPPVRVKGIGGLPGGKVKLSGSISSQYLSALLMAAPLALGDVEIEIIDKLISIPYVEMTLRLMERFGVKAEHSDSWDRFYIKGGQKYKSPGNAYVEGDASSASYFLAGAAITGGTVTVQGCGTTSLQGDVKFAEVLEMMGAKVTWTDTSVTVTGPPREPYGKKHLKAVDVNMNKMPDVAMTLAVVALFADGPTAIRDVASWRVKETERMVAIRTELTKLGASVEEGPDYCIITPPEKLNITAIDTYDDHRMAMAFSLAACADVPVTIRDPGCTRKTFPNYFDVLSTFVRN
Excerpt: The resultant products are gel purified and placed into a tube in eqi-molar concentrations to serve as a template for another round of PCRs with the rice 5′ and 3′ oligos. The resultant products are cloned into pCRBlunt II using Invitrogens Zero Blunt TOPO kit. It is confirmed that the DNA sequence of the insert and its predicted open reading frame correspond to that of the predicted mature chloroplastic rice EPSPS protein (with the exception of the presence of an initiating Met) and also that the desired changes (the specific mutation of T to I and P to S at specific positions in the EPSPS sequence) are encoded . The thus cloned and verified rice epsps sequence is excised using Nde 1 and Xho 1 and the purified fragment cloned into pET24a (Novagen) digested similarly. The recombinant clones are introduced into BL21 (DE3), a codon optimised RP strain of E. coli supplied by Strategene. The EPSPS protein is expressed in this strain following addition of 1 mM IPTG to the fermenter medium (LB supplemented with 100 ug/ml Kanamycin). […]

## O=C(O)CNCP(=O)(O)O [N-(phosphonomethyl)glycine, N-phosphonomethylglycine]
Resistant form of EPSPS
  inhibition of resistant (tolerant) EPSPS: < 8.5%
Resistant form of EPSPS; listed as glyphosate
  inhibition of resistant (tolerant) EPSPS: ~8%
[1]
  inhibition of sensitive w/t (endogenous) EPSPS: > 98%

## O=C(O)CNCP(=O)(O)O [potassium salt of glyphosate]
[2]
  pIC50: ~3.22
  pKi: ~3.70

— US20030049814A1, “Herbicide resistant plants” (priority 1999, published 2003)
